The target of assay [1] is T1, PAR2 (HT-29 cells, SLIGKV activation) (Homo sapiens, UniProt P55085).
T1 construct: host or cells: HT-29 cells
T1 sequence (P55085 26-397): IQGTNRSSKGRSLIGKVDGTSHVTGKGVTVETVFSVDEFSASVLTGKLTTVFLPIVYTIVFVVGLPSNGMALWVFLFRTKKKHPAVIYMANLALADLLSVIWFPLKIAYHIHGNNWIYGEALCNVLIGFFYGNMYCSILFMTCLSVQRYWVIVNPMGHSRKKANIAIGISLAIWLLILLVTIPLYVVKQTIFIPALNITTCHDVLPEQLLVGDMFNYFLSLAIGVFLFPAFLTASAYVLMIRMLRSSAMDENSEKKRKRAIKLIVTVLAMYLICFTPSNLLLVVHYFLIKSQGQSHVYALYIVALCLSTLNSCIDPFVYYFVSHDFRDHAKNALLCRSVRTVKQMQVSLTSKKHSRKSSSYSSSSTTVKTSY
The assay can be described thus: Ca FLIPR TETRA assay, ANTAGONIST mode, stimulation with 8 μM SLIGKV. Format: cell-based. Particulars: for pIC50: HT-29 cells, stimulation with 8 μM SLIGKV; for SLIGKV % @ concentration: @ 1.9 (μM). The protocol:
(§1) Example 60: Protocol for Testing PAR2 Compounds in ANTAGONIST Mode Using the Ca FLIPR^TETRA Assay (384 Well)
(§2) 23000 HT-29 cells (ATCC# HTB-38) were plated in 384-well black, transparent-flat bottom plates and incubated in 25 uL of 1% FBS/McCoy's media ON at 37° C. under an atmosphere of 5% CO2. The following day, 25 uL FLIPR calcium 5 Molecular Devices assay reagent (Cat: R-8186) was added. Plates were incubated at 37° C. and r. t. for 45 min and 15 min, respectively. Compounds dilutions were prepared in 100% DMSO using a Biomek FX and diluted 20-fold in HBSS and then 5.5 uL was added directly to the cells by the FLIPR^TETRA (10× dilution) using FLIPR Tetra Pipette tips, black, non-sterile, 384 Molecular Devices (Cat: 9000-0764).
(§3) A first read was performed to determine whether the test compounds on their own can activate Ca2+ responses.
(§4) The cells were incubated with the compounds for 30 min at r. t. and then read in ANTAGONIST mode in the same plate by stimulating with 6.2 uL of a fixed concentration of the activator: final concentrations: 8 μM SLIGKV, 1 U/mL Thrombin, 3.1 U/mL trypsin, or 0.6 μM UTP.

The target in assay [2] is T2, PAR2 (HT-29 cells, trypsin activation) (Homo sapiens, UniProt P55085).
T2 construct: host or cells: HT-29 cells
T2 sequence (P55085 26-397): T1 sequence (P55085 26-397)
The assay can be described thus: Ca FLIPR TETRA assay, ANTAGONIST mode, stimulation with 3.1 U/mL trypsin. It counts as cell-based. Particulars: HT-29 cells, stimulation with 3.1 U/mL trypsin. How it is done:
as §1, §2, §3, §4

The test system of assay [3] is Thrombin-stimulated Ca2+ response in HT-29 cells. The assay can be described thus: Ca FLIPR TETRA assay, ANTAGONIST mode, stimulation with 1 U/mL Thrombin. It counts as cell-based, human. Particulars: Homo sapiens, HT-29 cells, stimulation with 1 U/mL Thrombin. The protocol: as §1, §2, §3, §4
For assay [4], the system named is UTP-stimulated Ca2+ response in HT-29 cells. The experiment in a line: Ca FLIPR TETRA assay, ANTAGONIST mode, stimulation with 0.6 μM UTP. Format: cell-based, human. Particulars: for pIC50: Homo sapiens, HT-29 cells, stimulation with 0.6 μM UTP. How it is done:
as §1, §2, §3, §4

Molecules are shown by their SMILES. pIC50: −log10 of the molar value.

What is called pIC50 is the IC50 on a negative log10 scale, so that one unit is a factor of ten. Consider `C[C@H]1CN(C(=O)c2cn3nc(-c4ccc(F)cc4)cc(C(F)(F)F)c3n2)CCN1C(=O)OC(C)(C)C` [Compound I-1, tert-Butyl (2S)-4-[6-(4-fluorophenyl)-8-(trifluoromethyl)imidazo[1,2-b]pyridazine-2-carbonyl]-2-methyl-piperazine-1-carboxylate], for which the pIC50 in assay [1] was 6.55; in assay [2], 6.00; in assay [3] it was 5.44; in assay [4], 5.51.
For the compound `Cc1cc(-c2ccc(F)cc2)nn2cc(C(=O)N3CCN(C(=O)OC(C)(C)C)[C@@H](C)C3)nc12` [Compound I-2, tert-Butyl (2S)-4-[6-(4-fluorophenyl)-8-methyl-imidazo[1,2-b]pyridazine-2-carbonyl]-2-methyl-piperazine-1-carboxylate], the pIC50 in assay [1] was 6.07; in assay [2] it was 5.62; in assay [3], 5.21; in assay [4] it was 5.33.
For the compound `CCc1cc(-c2ccc(F)cc2)nn2cc(C(=O)N3CCN(C(=O)OC(C)(C)C)[C@@H](C)C3)nc12` [Compound I-3, tert-Butyl (2S)-4-[8-ethyl-6-(4-fluorophenyl)imidazo[1,2-b]pyridazine-2-carbonyl]-2-methyl-piperazine-1-carboxylate], the negative-log IC50 (pIC50) is 6.80 in assay [1], 6.08 in assay [2], 4.74 in assay [3] and 4.80 in assay [4].
`CCc1cc(-c2ccc(F)cc2)nn2cc(C(=O)N3CCN(C(=O)OC(C)(C)C)CC3(C)C)nc12` [Compound I-4, tert-Butyl 4-[8-ethyl-6-(4-fluorophenyl)imidazo[1,2-b]pyridazine-2-carbonyl]-3,3-dimethyl-piperazine-1-carboxylate]: the pIC50 was 8.52 in assay [1], 7.80 in assay [2], 4.92 in assay [3] and 4.77 in assay [4].
As for `Cc1cc(-c2ccc(F)cc2)nn2cc(C(=O)N3CCCCCC3)nc12` [Compound I-6, Azepan-1-yl-[6-(4-fluorophenyl)-8-methyl-imidazo[1,2-b]pyridazin-2-yl]methanone], the pIC50 in assay [1] was 5.89; in assay [2], 5.60; in assay [3] it was 5.00; in assay [4], 4.96.
In the case of `Cc1cc(-c2ccc(F)cc2)nn2cc(C(=O)N3CCN(C(=O)OCc4ccccc4)[C@@H](C)C3)nc12` [Compound I-8, (S)-Benzyl 4-(6-(4-fluorophenyl)-8-methylimidazo[1,2-b]pyridazine-2-carbonyl)-2-methylpiperazine-1-carboxylate], the pIC50 in assay [1] was 6.74; in assay [2], 6.16; in assay [3] it was 4.37; in assay [4] it was 4.51.
With `COC(=O)[C@@H]1CCN(C(=O)c2cn3nc(-c4ccc(F)cc4)cc(C)c3n2)C[C@@H]1C` [Compound I-10, (3R,4R)-Methyl 1-(6-(4-fluorophenyl)-8-methylimidazo[1,2-b]pyridazine-2-carbonyl)-3-methylpiperidine-4-carboxylate], the pIC50 in assay [1] is 6.37; in assay [2], 5.96; in assay [3], 4.80; in assay [4], 4.74.
For `C[C@H]1CN(C(=O)c2cn3nc(-c4ccc(F)cc4)cc(C(F)(F)F)c3n2)CCN1C(=O)OCc1ccccn1` [Compound I-11, 2-Pyridylmethyl (2S)-4-[6-(4-fluorophenyl)-8-(trifluoromethyl)-imidazo-[1,2-b]pyridazine-2-carbonyl]-2-methyl-piperazine-1-carboxylate] the same measures were 7.19, 6.52, 5.02 and under 5.30.
For the compound `C[C@H]1CN(C(=O)c2cn3nc(-c4ccc(F)cc4)cc(C(F)(F)F)c3n2)CCN1C(=O)OCc1cccnc1` [Compound I-12, 3-Pyridylmethyl (2S)-4-[6-(4-fluorophenyl)-8-(trifluoromethyl)-imidazo-[1,2-b]pyridazine-2-carbonyl]-2-methyl-piperazine-1-carboxylate], the pIC50 in assay [1] was 7.08; in assay [2], 6.31; in assay [3], 5.11; in assay [4], 5.04.
The like results for `C[C@H]1CN(C(=O)c2cn3nc(-c4ccc(F)cc4)ccc3n2)CCN1C(=O)[C@H](O)CC(C)(C)C` [Compound I-13, (2R)-1-[(2S)-4-[6-(4-Fluorophenyl)imidazo[1,2-b]pyridazine-2-carbonyl]-2-methyl-piperazin-1-yl]-2-hydroxy-4,4-dimethyl-pentan-1-one] were, in that order, 6.32, 5.62, 4.89 and 4.89.
For `C[C@H]1CN(C(=O)c2cn3nc(-c4ccc(F)cc4)cc(C4CC4)c3n2)CCN1C(=O)[C@H](O)CC(C)(C)C` [Compound I-14, (2R)-1-[(2S)-4-[8-Cylopropyl-6-(4-fluorophenyl)imidazo[1,2-b]pyridazine-2-carbonyl]-2-methyl-piperazin-1-yl]-2-hydroxy-4,4-dimethyl-pentan-1-one] the same measures were 9.30, 9.10, under 5.30 and under 5.30.
Take `C[C@H]1CN(C(=O)c2cn3nc(-c4ccc(F)cc4)cc(C(F)(F)F)c3n2)CCN1C(=O)[C@@H](CC1CCCCC1)NC(=O)OC(C)(C)C` [Compound I-15, tert-Butyl N-[(1R)-1-(cyclohexylmethyl)-2-[(2S)-4-[6-(4-fluorophenyl)-8-(trifluoromethyl)imidazo[1,2-b]pyridazine-2-carbonyl]-2-methyl-piperazin-1-yl]-2-oxo-ethyl]carbamate]: the negative logarithm of the IC50 (pIC50) was 7.33 in assay [1], 7.24 in assay [2], under 4.30 in assay [3] and under 4.30 in assay [4].
For the compound `C[C@H]1CN(C(=O)c2cn3nc(-c4ccc(F)cc4)cc(C(F)(F)F)c3n2)CCN1C(=O)[C@H](N)CC1CCCCC1` [Compound I-16, (2R)-2-amino-3-cyclohexyl-1-[(2S)-4-[6-(4-fluorophenyl)-8-(trifluoromethyl)imidazo[1,2-b]pyridazine-2-carbonyl]-2-methyl-piperazin-1-yl]propan-1-one], the pIC50 is 7.43 in assay [1], 6.55 in assay [2], 4.96 in assay [3] and 4.96 in assay [4].
In the case of `CCOC1CCN(C(=O)c2cn3nc(-c4ccc(F)cc4)cc(C(F)(F)F)c3n2)CC1` [Compound I-48], the “SLIGKV % @ concentration” value in assay [1] is 51% @ 1.9. Further, the pIC50 in assay [3] and in assay [4] was under 4.30 throughout.
Regarding `O=C1NCCN2CCN(C(=O)c3cn4nc(-c5ccc(F)cc5)cc(C(F)(F)F)c4n3)CC12` (stereo not shown) [Compound I-58], the pIC50 in assay [1] is 5.89; in assay [3] it was under 4.30; in assay [4], under 4.30.
Take `C[C@H]1CCCCN1C(=O)c1cn2nc(-c3ccc(F)cc3)cc(C(F)(F)F)c2n1` [Compound I-65]: the “SLIGKV % @ concentration” value in assay [1] stood at 56% @ 1.9. For the same compound, the pIC50 in assay [3] and in assay [4] was under 4.30 in each case.
Turning to `CC(C)(C)OC(=O)NC1CCN(C(=O)c2cn3nc(-c4ccc(F)cc4)cc(C(F)(F)F)c3n2)CC1` [Compound I-74], the pIC50 in assay [1] is 6.32; in assay [3], under 4.30. For the same compound, the “UTP % @ concentration” value in assay [4] (@ 50 (μM)) was 62% @ 50.
With `CN(C(=O)OC(C)(C)C)C1CCN(C(=O)c2cn3nc(-c4ccc(F)cc4)cc(C(F)(F)F)c3n2)CC1` [Compound I-77], the values for the pIC50 in assay [1], in assay [3] and in assay [4] were 6.17, under 4.30 and under 4.30, respectively.
On to `C[C@H]1CN(C(=O)c2cn3nc(-c4ccc(F)cc4)cc(C(F)(F)F)c3n2)CCN1C(=O)c1cc(-c2ccccc2)n[nH]1` [Compound I-87], for which the pIC50 is 7.68 in assay [1], under 4.30 in assay [3] and under 4.30 in assay [4].
`C[C@H]1CN(C(=O)c2cn3nc(-c4ccc(F)cc4)cc(C(F)(F)F)c3n2)CCN1C(=O)c1ncc[nH]1` [Compound I-88]: the pIC50 was 6.17 in assay [1], under 4.30 in assay [3] and under 4.30 in assay [4].
For `Cc1cc(F)ccc1-c1cc(C(C)C)c2nc(C(=O)N3CCNC(=O)C3(C)C)cn2n1` [Compound I-478], the figures for the pIC50 in assay [1] (antagonist mode), in assay [3] (antagonist mode) and in assay [4] (antagonist mode) were 6.10, under 6.00 and under 6.00, respectively.

(Values after US20190119282A1, “IMIDAZOPYRIDAZINES USEFUL AS INHIBITORS OF THE PAR-2 SIGNALING PATHWAY” (Vertex Pharmaceuticals Incorporated, priority 2013, published 2019).)
